Patent US20230203098A1, “HUMAN TRANSFERRIN RECEPTOR BINDING PEPTIDE” (priority 2020, published 2023)
Like-named read-outs stand apart in the source and are kept apart here. Each block holds one compound with its values, some of them ahead of it. Where a SMILES comes first, the peptide text is derived from it. Bridges are numbered along the chain shown (N, C = ends). [ ]: non-standard residue; d: D form. Ala(imidazo(1,2-a)pyr3yl) = N[C@@H](Cc1cnc2ccccn12)C(=O)O; NMePhe(3-Cl) = CN[C@@H](Cc1cccc(Cl)c1)C(=O)O; NMeW = CN[C@@H](Cc1c[nH]c2ccccc12)C(=O)O; NMeY = CN[C@@H](Cc1ccc(O)cc1)C(=O)O; 4Pal = N[C@@H](Cc1ccncc1)C(=O)O; PEG4 = NCCOCCOCCOCCOCCC(=O)O; Nle = CCCC[C@H](N)C(=O)O

Biological target: transferrin receptor (hTfR) (Homo sapiens, UniProt P02786)
Sequence (P02786 whole entry): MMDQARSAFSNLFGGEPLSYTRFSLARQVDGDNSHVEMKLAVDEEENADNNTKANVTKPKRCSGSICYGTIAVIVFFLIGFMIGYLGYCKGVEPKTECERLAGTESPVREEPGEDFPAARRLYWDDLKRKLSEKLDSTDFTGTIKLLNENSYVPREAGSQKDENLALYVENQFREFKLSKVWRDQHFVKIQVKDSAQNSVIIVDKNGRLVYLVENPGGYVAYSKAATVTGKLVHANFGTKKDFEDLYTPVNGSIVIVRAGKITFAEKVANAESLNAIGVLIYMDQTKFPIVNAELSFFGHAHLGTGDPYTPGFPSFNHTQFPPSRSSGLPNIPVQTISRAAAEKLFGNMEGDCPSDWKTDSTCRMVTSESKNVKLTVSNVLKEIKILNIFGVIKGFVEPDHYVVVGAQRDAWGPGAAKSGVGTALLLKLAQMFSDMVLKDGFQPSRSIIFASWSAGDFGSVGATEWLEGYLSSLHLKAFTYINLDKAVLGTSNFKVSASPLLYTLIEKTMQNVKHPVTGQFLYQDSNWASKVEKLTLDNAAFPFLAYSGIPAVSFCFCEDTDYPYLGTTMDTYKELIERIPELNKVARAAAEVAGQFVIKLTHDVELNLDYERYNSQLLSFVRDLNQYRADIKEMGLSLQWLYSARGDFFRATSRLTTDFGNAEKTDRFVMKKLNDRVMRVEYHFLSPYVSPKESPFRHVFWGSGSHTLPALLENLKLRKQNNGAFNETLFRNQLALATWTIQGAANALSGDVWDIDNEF
Assay: Intermolecular interaction evaluation test between transferrin receptor (hTfR) and peptide by surface plasmon resonance (SPR)
Type: binding
Description: For each of the various synthesized peptides, the intermolecular interaction of the peptide with the transferrin receptor (hTfR) was tested by surface plasmon resonance (SPR) according to the following method. The specific test method is as follows.
An NTA sensor chip (Global Life Sciences Technologies Japan) was inserted in a Biacore T200 (Global Life Sciences Technologies Japan) and a prime operation was performed 3 times with a running buffer: 10 mM HEPES pH 8.0 (Nacalai Tesque), 150 mM NaCl (Nacalai Tesque), 0.05% Tween 20 (Nacalai Tesque), 0.1% BSA (Sigma-Aldrich), 1.0% DMSO (FUJIFILM Wako Pure Chemical) to create an Equilibration state at a flow rate of 30 µL/min. After reacting with 350 mM EDTA solution for 60 seconds at a flow rate of 10 µL/min then reacting with 0.5 mM NiCl2 solution (Kishida Chemical) for 60 seconds at a flow rate of 10 µL/min, the NTA sensor chip was washed with 3 mM EDTA solution (Nacalai Tesque) for 60 seconds at a flow rate of 10 µL/min. After mixing 50 µL each of 60 mM EDC solution (Global Life Sciences Technologies Japan) and 650 mM NHS solution (Global Life Sciences Technologies Japan), the mixture was reacted for 420 seconds at a flow rate of 10 µL/min. By diluting with the running buffer, 150 µL of 3.2 µM hTfR solution was prepared and used for reaction for 600 seconds at a flow rate of 10 µL/min, thereby immobilizing hTfR on the NTA sensor chip. After immobilization, capping was performed by reacting with 1.0 M ethanolamine aqueous solution (Global Life Sciences Technologies Japan) for 420 seconds at a flow rate of 10 µL/min. A peptide dissolution liquid prepared to 10 mM in the DMSO solution was diluted with the running buffer to a final concentration of 10 µM so as to become the peptide dissolution liquid, then peptide solutions of 100 nM, 50 nM, 25 nM, 10 nM and 5 nM were prepared. Kinetics of the peptide to hTfR was acquired by SPR measurement using the above-mentioned samples. Single-cycle kinetics was used as a kinetic evaluation model and curve fitting was performed using Biacore T200 Evaluation Software Version 3.0 (Global Life Sciences Technologies Japan). An obtained sensorgram was subjected to curve fitting using the least-squares method, and the binding of the peptide to hTfR was evaluated by obtaining KD values. […] A chemical structure of hTfR No. 894 is as follows.
The variant peptides were synthesized according to Example 1 unless otherwise stated in Example 9 or 10. The linker-added peptides were synthesized according to Example 1, except that Fmoc-NH-SAL-PEG resin (Watanabe Chemical Industries) was used as a resin for the peptide synthesis when the linker was PEG. The peptide, to which a peptide, a fatty acid, PEG, or a conjugate thereof is added as a linker, was also synthesized according to Example 1, unless otherwise stated in Example 9 or 10.

[1] = binding to hTfR by SPR, Table 2 peptides, read-out: KD value (SPR) class
[2] = surface plasmon resonance, hTfR, read-out: KD value for hTfR by SPR (class symbol)
[3] = SPR, hTfR, class symbols A-D, read-out: KD

SMILES: CC[C@H](C)[C@@H]1NC(=O)[C@H](Cc2ccc(O)cc2)NC(=O)[C@H](Cc2ccc(O)cc2)NC(=O)[C@H](CC(N)=O)NC(=O)[C@H](Cc2c[nH]c3cc(F)ccc23)NC(=O)[C@H](C(C)C)NC(=O)[C@H](Cc2ccccc2)N(C)C(=O)[C@H](C(C)C)NC(=O)[C@H](C)NC(=O)CSC[C@@H](C(N)=O)NC(=O)[C@H](Cc2ccc(O)cc2)N(C)C(=O)[C@H](Cc2ccc(O)cc2)NC(=O)[C@H](CCCNC(=N)N)NC(=O)[C@H](CCCNC(=N)N)NC(=O)[C@H]([C@@H](C)CC)NC1=O [compound 270]
Kd [1]: 1 to 100 nM

SMILES: CCCC[C@@H]1NC(=O)[C@H]([C@@H](C)CC)NC(=O)[C@H](Cc2ccc(OC)cc2)NC(=O)[C@H](Cc2ccc(O)cc2)NC(=O)[C@H](CC(N)=O)NC(=O)[C@H](Cc2c[nH]c3ccccc23)N(C)C(=O)[C@H](C(C)C)NC(=O)[C@H](Cc2cccc(Cl)c2)N(C)C(=O)[C@H](C(C)C)NC(=O)[C@H](C)NC(=O)CSC[C@@H](C(=O)NCCOCCOCCOCCOCCC(N)=O)NC(=O)[C@H](Cc2ccc(O)cc2)N(C)C(=O)[C@H](Cc2ccccc2)NC(=O)[C@@H](CCCNC(=N)N)NC(=O)[C@H](CCCNC(=N)N)NC1=O [compound 334] ({CH2CO}-AV[NMePhe(3-Cl)]V[NMeW]NYY(Me)I[Nle]R[dR]F[NMeY]C[PEG4]-NH2; thioether N-15)
Kd (surface plasmon resonance, peptide vs hTfR, read-out: KD value, hTfR binding by SPR (class symbol)): 1 to 100 nM

SMILES: CC[C@H](C)[C@@H]1NC(=O)[C@H](Cc2ccc(OC)cc2)NC(=O)[C@H](Cc2ccc(O)cc2)NC(=O)[C@H](CC(N)=O)NC(=O)[C@H](Cc2c[nH]c3ccccc23)N(C)C(=O)[C@H](C(C)C)NC(=O)[C@H](Cc2cccc(Cl)c2)N(C)C(=O)[C@H](C(C)C)NC(=O)[C@H](C)NC(=O)CSC[C@@H](C(N)=O)NC(=O)[C@H](Cc2ccc(O)cc2)N(C)C(=O)[C@H](Cc2ccccc2)NC(=O)[C@H](CCCNC(=N)N)NC(=O)[C@H](CCCCN)NC(=O)[C@H]([C@@H](C)CC)NC1=O [compound 371]
Kd [2]: < 1 nM

SMILES: CC[C@H](C)[C@@H]1NC(=O)[C@H](Cc2ccc(O)cc2)NC(=O)[C@H](Cc2ccc(O)cc2)NC(=O)[C@H](CC(N)=O)NC(=O)[C@H](Cc2c[nH]c3ccccc23)N(C)C(=O)[C@H](C(C)C)NC(=O)[C@H](Cc2ccccc2)NC(=O)[C@H](C(C)C)NC(=O)[C@H](C)NC(=O)CSC[C@@H](C(=O)NCCOCCOCCOCCOCCC(N)=O)NC(=O)[C@H](Cc2ccc(O)cc2)N(C)C(=O)[C@H](Cc2ccc(O)cc2)NC(=O)[C@H](CCCNC(=N)N)NC(=O)[C@H](CCCNC(=N)N)NC(=O)[C@H]([C@@H](C)CC)NC1=O [compound 264]
Kd [1]: < 1 nM

SMILES: CC[C@H](C)[C@@H]1NC(=O)[C@H](Cc2ccc(O)cc2)NC(=O)[C@H](Cc2ccc(O)cc2)NC(=O)[C@H](CC(N)=O)NC(=O)[C@H](Cc2c[nH]c3ccccc23)NC(=O)[C@H](C(C)C)NC(=O)[C@H](Cc2ccccc2)NC(=O)[C@H](C(C)C)NC(=O)[C@H](C)NC(=O)CSC[C@@H](C(=O)NCCOCCOCCOCCOCCOCCOCCOCCOCCOCCOCCOCCOCCC(=O)N[C@@H](CCCCNC(=O)c2ccc(-c3c4ccc(=O)cc-4oc4cc(O)ccc34)c(C(=O)O)c2)C(N)=O)NC(=O)[C@H](Cc2ccc(O)cc2)N(C)C(=O)[C@H](Cc2ccc(O)cc2)NC(=O)[C@H](CCCNC(=N)N)NC(=O)[C@H](CCCNC(=N)N)NC(=O)[C@H]([C@@H](C)CC)NC1=O [compound 147]
Kd (SPR, linker and payload (FITC, VivoTag) conjugates, read-out: KD): < 1 nM

SMILES: CC[C@H](C)[C@@H]1NC(=O)[C@H](Cc2ccc(O)cc2)NC(=O)[C@H](Cc2ccc(O)cc2)NC(=O)[C@H](CC(N)=O)NC(=O)[C@H](Cc2c[nH]c3ccccc23)NC(=O)[C@H](C(C)C)NC(=O)[C@H](Cc2ccccc2)N(C)C(=O)[C@H](C(C)C)NC(=O)[C@H](C)NC(=O)CSC[C@@H](C(=O)NCCOCCOCCOCCOCCOCCOCCOCCOCCOCCOCCOCCOCCC(N)=O)NC(=O)[C@H](CCCNC(=N)N)NC(=O)[C@H](Cc2ccc(O)cc2)NC(=O)[C@H](CCCNC(=N)N)NC(=O)[C@H](CCCNC(=N)N)NC(=O)[C@H]([C@@H](C)CC)NC1=O [compound 127]
Kd (SPR, hTfR No. 894 variants with PEG12c linker (Table 2), read-out: KD): 1 to 100 nM

SMILES: CC[C@H](C)[C@@H]1NC(=O)[C@H](Cc2ccc(OC)cc2)NC(=O)[C@H](Cc2ccc(O)cc2)NC(=O)[C@H](CC(N)=O)NC(=O)[C@H](Cc2c[nH]c3ccccc23)N(C)C(=O)[C@H](C(C)C)NC(=O)[C@H](Cc2cccc(Cl)c2)N(C)C(=O)[C@H](CCC(=O)O)NC(=O)[C@H](C)NC(=O)CSC[C@@H](C(N)=O)NC(=O)[C@H](Cc2ccc(O)cc2)N(C)C(=O)[C@H](Cc2ccccc2)NC(=O)[C@@H](CCCNC(=N)N)NC(=O)[C@H](CCCCN)NC(=O)[C@H]([C@@H](C)CC)NC1=O [compound 228] ({CH2CO}-AE[NMePhe(3-Cl)]V[NMeW]NYY(Me)IIK[dR]F[NMeY]C-NH2; thioether N-15)
Kd (SPR, peptides, linker-added peptides and FITC conjugates, Patent ID 203-230, read-out: KD): 1 to 100 nM

Next, values leading:

Kd [2]: 1 to 100 nM
SMILES: CC[C@H](C)[C@@H]1NC(=O)[C@H](Cc2ccc(OC)cc2)NC(=O)[C@H](Cc2ccc(O)cc2)NC(=O)[C@H](CC(N)=O)NC(=O)[C@H](Cc2c[nH]c3ccccc23)N(C)C(=O)[C@H](C(C)C)NC(=O)[C@H](Cc2cccc(Cl)c2)N(C)C(=O)[C@H](C(C)C)NC(=O)[C@H](C)NC(=O)CSC[C@@H](C(N)=O)NC(=O)[C@H](Cc2ccc(O)cc2)N(C)C(=O)[C@H](Cc2ccccc2)NC(=O)[C@@H](CCCNC(=N)N)NC(=O)[C@H](CCCCN)NC(=O)[C@H]([C@@H](C)CC)NC1=O [compound 373]

Kd [2]: 1 to 100 nM
SMILES: CC[C@H](C)[C@@H]1NC(=O)[C@H](Cc2ccc(OC)cc2)NC(=O)[C@H](Cc2ccc(O)cc2)NC(=O)[C@H](CC(N)=O)NC(=O)[C@H](Cc2c[nH]c3ccccc23)N(C)C(=O)[C@H](C(C)C)NC(=O)[C@H](Cc2cccc(Cl)c2)N(C)C(=O)[C@H](C(C)C)NC(=O)[C@H](C)NC(=O)CSC[C@@H](C(N)=O)NC(=O)[C@H](Cc2ccc(O)cc2)N(C)C(=O)[C@H](CCC(=O)N[C@H](CCC(=O)O)C(=O)O)NC(=O)[C@@H](CCCNC(=N)N)NC(=O)[C@H](CCCNC(=N)N)NC(=O)[C@H]([C@@H](C)CC)NC1=O [compound 391]

Kd [2]: 1 to 100 nM
SMILES: CC[C@H](C)[C@@H]1NC(=O)[C@H](Cc2ccc(O)cc2)NC(=O)[C@H](Cc2ccc(O)cc2)NC(=O)[C@H](CC(N)=O)NC(=O)[C@H](Cc2c[nH]c3ccccc23)N(C)C(=O)[C@H](C(C)C)NC(=O)[C@H](Cc2cccc(Cl)c2)N(C)C(=O)[C@@H]2CCCC(=O)NCCCCC[C@H](NC(=O)[C@H]([C@@H](C)CC)NC1=O)C(=O)N[C@@H](CCCNC(=N)N)C(=O)N[C@@H](Cc1ccc(O)cc1)C(=O)N(C)[C@@H](Cc1ccc(O)cc1)C(=O)N[C@H](C(N)=O)CSCC(=O)N[C@@H](C)C(=O)N2 [compound 410]

Kd [3]: 1 to 100 nM
SMILES: CC[C@H](C)[C@@H]1NC(=O)[C@H](Cc2cnc3ccccn23)NC(=O)[C@H](Cc2ccc(O)cc2)NC(=O)[C@H](CC(N)=O)NC(=O)[C@H](Cc2c[nH]c3ccccc23)N(C)C(=O)[C@H](C(C)C)NC(=O)[C@H](Cc2cccc(Cl)c2)N(C)C(=O)[C@H](C(C)C)NC(=O)[C@H](C)NC(=O)CSC[C@@H](C(N)=O)NC(=O)[C@H](Cc2ccc(O)cc2)N(C)C(=O)[C@H](Cc2ccccc2)NC(=O)[C@@H](CCCNC(=N)N)NC(=O)[C@H](CCCNC(=N)N)NC(=O)[C@H]([C@@H](C)CC)NC1=O [compound 456] ({CH2CO}-AV[NMePhe(3-Cl)]V[NMeW]NY[Ala(imidazo(1,2-a)pyr3yl)]IIR[dR]F[NMeY]C-NH2; thioether N-15)

Kd [3]: 1 to 100 nM
SMILES: CC[C@H](C)[C@@H]1NC(=O)[C@H](Cc2ccncc2)NC(=O)[C@H](Cc2ccc(O)cc2)NC(=O)[C@H](CC(N)=O)NC(=O)[C@H](Cc2c[nH]c3ccccc23)N(C)C(=O)[C@H](C(C)C)NC(=O)[C@H](Cc2cccc(Cl)c2)N(C)C(=O)[C@H](C(C)C)NC(=O)[C@H](C)NC(=O)CSC[C@@H](C(N)=O)NC(=O)[C@H](Cc2ccc(O)cc2)N(C)C(=O)[C@H](Cc2ccccc2)NC(=O)[C@@H](CCCNC(=N)N)NC(=O)[C@H](CCCNC(=N)N)NC(=O)[C@H]([C@@H](C)CC)NC1=O [compound 455] ({CH2CO}-AV[NMePhe(3-Cl)]V[NMeW]NY[4Pal]IIR[dR]F[NMeY]C-NH2; thioether N-15)
